Test results from US10273243B2, “4-phenylpiperidines, their preparation and use” (The Trustees of Columbia University in the City of New York, priority 2013, dated 2019).
Counter-ions that a name gives are not always drawn.

First: O=C(c1n[nH]c2c1CCNC2)N1CCC(c2ccccc2C(F)(F)F)CC1 (as salt: hydrochloride) [Example 16, (4,5,6,7-Tetrahydro-1H-pyrazolo[3,4-c]pyridin-3-yl)(4-(2-(trifluoromethyl)phenyl)piperidin-1-yl)methanone Hydrochloride]
Second: O=C(c1n[nH]c2c1CNCC2)N1CCC(c2ccccc2C(F)(F)F)CC1 [Example 26, (4,5,6,7-Tetrahydro-1H-pyrazolo[4,3-c]pyridin-3-yl)(4-(2-(trifluoromethyl)phenyl)piperidin-1-yl)methanone]
The melting point of the first is higher: 272 to 278 °C for the first, 270 to 272 °C for the second.

Compared with `Cn1nc(C(=O)N2CCC(c3ccccc3C(F)(F)F)CC2)c2c1CCOC2` [Example 1, (1-Methyl-1,4,6,7-tetrahydropyrano[4,3-c]pyrazol-3-yl)(4-(2-(trifluoromethyl)phenyl)piperidin-1-yl)methanone], `Cn1nc(C(=O)N2CCC(c3ccccc3C(F)(F)F)CC2)c2c1CC(C)(C)OC2` [Example 2, (4-(2-(Trifluoromethyl)phenyl)piperidin-1-yl)(1,6,6-trimethyl-1,4,6,7-tetrahydropyrano[4,3-c]pyrazol-3-yl)methanone] is higher in melting point: 44 to 46 °C for the first, 58 to 64 °C for the second.

Compared with `Cn1nc(C(=O)N2CCC(c3ccccc3C(F)(F)F)CC2)c2c1CCS(=O)(=O)C2` [Example 3, (1-methyl-5,5-dioxido-1,4,6,7-tetrahydrothiopyrano[4,3-c]pyrazol-3-yl)(4-(2-(trifluoromethyl)phenyl)piperidin-1-yl)methanone], `CN1CCc2c(C(=O)N3CCC(c4ccccc4C(F)(F)F)CC3)n[nH]c2C1` [Example 19, (6-Methyl-4,5,6,7-tetrahydro-1H-pyrazolo[3,4-c]pyridin-3-yl)(4-(2-(trifluoromethyl)phenyl)piperidin-1-yl)methanone] is lower in melting point: 232 to 234 °C for the first, 115 to 120 °C for the second.

First: CC(=O)N1Cc2[nH]nc(C(=O)N3CCC(c4ccccc4C(F)(F)F)CC3)c2C1 [Example 7, 1-(3-(4-(2-(Trifluoromethyl)phenyl)piperidine-1-carbonyl)pyrrolo[3,4-c]pyrazol-5(1H,4H,6H)-yl)ethanone]
Second: CC(=O)N1CCc2c(C(=O)N3CCC(c4ccccc4C(F)(F)F)CC3)n[nH]c2C1 [Example 17, 1-(3-(4-(2-(Trifluoromethyl)phenyl)piperidine-1-carbonyl)-4,5-dihydro-1H-pyrazolo[3,4-c]pyridin-6(7H)-yl)ethanone]
The melting point of the first is lower: 186 to 192 °C for the first, 202 to 209 °C for the second.

First: CN1CCCc2[nH]nc(C(=O)N3CCC(c4ccccc4C(F)(F)F)CC3)c2C1 [Example 10, (5-Methyl-1,4,5,6,7,8-hexahydropyrazolo[4,3-c]azepin-3-yl)(4-(2-(trifluoromethyl)phenyl)piperidin-1-yl)methanone]
Second: CCN1CCc2[nH]nc(C(=O)N3CCC(c4ccccc4C(F)(F)F)CC3)c2C1 [Example 43, (5-Ethyl-4,5,6,7-tetrahydro-1H-pyrazolo[4,3-c]pyridin-3-yl)(4-(2-(trifluoromethyl)phenyl)piperidin-1-yl)methanone]
The melting point of the first is lower: 75 to 85 °C for the first, 159 to 162 °C for the second.

`CS(=O)(=O)N1CCc2c(C(=O)N3CCC(c4ccccc4C(F)(F)F)CC3)n[nH]c2C1` [Example 18, (6-(Methylsulfonyl)-4,5,6,7-tetrahydro-1H-pyrazolo[3,4-c]pyridin-3-yl)(4-(2-(trifluoromethyl)phenyl)piperidin-1-yl)methanone] and `CS(=O)(=O)N1CCc2[nH]nc(C(=O)N3CCC(c4ccccc4C(F)(F)F)CC3)c2C1` [Example 28, (5-(Methylsulfonyl)-4,5,6,7-tetrahydro-1H-pyrazolo[4,3-c]pyridin-3-yl)(4-(2-(trifluoromethyl)phenyl)piperidin-1-yl)methanone] cannot be ordered by melting point: 242 to 245 °C for the first, 240 to 243 °C for the second.

First: Cn1nc(C(=O)N2CCC(c3ccccc3C(F)(F)F)CC2)c2cc(F)ccc21 [Example 21, (5-Fluoro-1-methyl-1H-indazol-3-yl)(4-(2-(trifluoromethyl)phenyl)piperidin-1-yl)methanone]
Second: N#Cc1ccc2[nH]nc(C(=O)N3CCC(c4ccccc4C(F)(F)F)CC3)c2c1 [Example 36, 3-(4-(2-(Trifluoromethyl)phenyl)piperidine-1-carbonyl)-1H-indazole-5-carbonitrile]
The melting point of the first is lower: 161 to 163 °C for the first, 249 to 252 °C for the second.

First: CC(=O)N1CCc2[nH]nc(C(=O)N3CCC(c4ccccc4C(F)(F)F)CC3)c2C1 [Example 27, 1-(3-(4-(2-(Trifluoromethyl)phenyl)piperidine-1-carbonyl)-6,7-dihydro-1H-pyrazolo[4,3-c]pyridin-5(4H)-yl)ethanone]
Second: CC(C)C(=O)N1CCc2[nH]nc(C(=O)N3CCC(c4ccccc4C(F)(F)F)CC3)c2C1 [Example 41, 2-Methyl-1-(3-(4-(2-(trifluoromethyl)phenyl)piperidine-1-carbonyl)-6,7-dihydro-1H-pyrazolo[4,3-c]pyridin-5(4H)-yl)propan-1-one]
The melting point of the first is higher: 208 to 211 °C for the first, 112 to 114 °C for the second.

First: O=C(c1n[nH]c2ncccc12)N1CCC(c2ccccc2C(F)(F)F)CC1 [Example 30, (1H-pyrazolo[3,4-b]pyridin-3-yl)(4-(2-(trifluoromethyl)phenyl)piperidin-1-yl)methanone]
Second: O=C(c1n[nH]c2cc(F)c(F)cc12)N1CCC(c2ccccc2C(F)(F)F)CC1 [Example 34, (5,6-Difluoro-1H-indazol-3-yl)(4-(2-(trifluoromethyl)phenyl)piperidin-1-yl)methanone]
The melting point of the first is lower: 202 to 205 °C for the first, 233 to 235 °C for the second.

First: CCS(=O)(=O)N1CCc2[nH]nc(C(=O)N3CCC(c4ccccc4C(F)(F)F)CC3)c2C1 [Example 37, (5-(Ethylsulfonyl)-4,5,6,7-tetrahydro-1H-pyrazolo[4,3-c]pyridin-3-yl)(4-(2-(trifluoromethyl)phenyl)piperidin-1-yl)methanone]
Second: CC(C)CS(=O)(=O)N1CCc2[nH]nc(C(=O)N3CCC(c4ccccc4C(F)(F)F)CC3)c2C1 [Example 38, (5-(Isobutylsulfonyl)-4,5,6,7-tetrahydro-1H-pyrazolo[4,3-c]pyridin-3-yl)(4-(2-(trifluoromethyl)phenyl)piperidin-1-yl)methanone]
The melting point of the first is higher: 187 to 189 °C for the first, 178 to 180 °C for the second.

First: CC(C)S(=O)(=O)N1CCc2[nH]nc(C(=O)N3CCC(c4ccccc4C(F)(F)F)CC3)c2C1 [Example 39, (5-(Isopropylsulfonyl)-4,5,6,7-tetrahydro-1H-pyrazolo[4,3-c]pyridin-3-yl)(4-(2-(trifluoromethyl)phenyl)piperidin-1-yl)methanone]
Second: CC(C)CC(=O)N1CCc2[nH]nc(C(=O)N3CCC(c4ccccc4C(F)(F)F)CC3)c2C1 [Example 42, 3-Methyl-1-(3-(4-(2-(trifluoromethyl)phenyl)piperidine-1-carbonyl)-6,7-dihydro-1H-pyrazolo[4,3-c]pyridin-5(4H)-yl)butan-1-one]
The melting point of the first is higher: 199 to 201 °C for the first, 107 to 109 °C for the second.

`CC(C)(C)C(=O)N1CCc2[nH]nc(C(=O)N3CCC(c4ccccc4C(F)(F)F)CC3)c2C1` [Example 40, 2,2-Dimethyl-1-(3-(4-(2-(trifluoromethyl)phenyl)piperidine-1-carbonyl)-6,7-dihydro-1H-pyrazolo[4,3-c]pyridin-5(4H)-yl)propan-1-one] showed a melting point of 126 to 128 °C.
